ChEMBL document CHEMBL1131740, “N-substituted 4-(5-indolyl)benzoic acids. Synthesis and evaluation of steroid 5alpha-reductase type I and II inhibitory activity” (Bioorg Med Chem Lett, 1999)
Activity calls are given as the source filed them. The calls are words filed in the database; no cut-off is given here.

What was measured:
[1] = target: T1, 3-oxo-5-alpha-steroid 4-dehydrogenase 1 (Homo sapiens) (UniProt P18405); assay: Inhibition against human 5-alpha-reductase type 1 Steroid 5-alpha-reductase type I culture at 10 uM concentration using 3H androstenedione 5 nM as substrate
T1 sequence (whole entry): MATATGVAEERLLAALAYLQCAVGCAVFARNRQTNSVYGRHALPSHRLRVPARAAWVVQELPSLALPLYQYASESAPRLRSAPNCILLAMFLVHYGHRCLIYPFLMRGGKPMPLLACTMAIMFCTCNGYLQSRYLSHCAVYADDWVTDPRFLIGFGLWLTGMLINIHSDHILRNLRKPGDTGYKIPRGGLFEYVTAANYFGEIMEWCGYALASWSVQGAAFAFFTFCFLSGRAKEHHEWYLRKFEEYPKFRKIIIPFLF

[2] = target: T2, 3-oxo-5-alpha-steroid 4-dehydrogenase 1 (Homo sapiens, UniProt P18405); assay: Inhibitory concentration against human Steroid 5-alpha-reductase type I in DU 145 cell culture using 3H androstenedione 5 nM as substrate; type: cell-based
T2 sequence (P18405 whole entry): T1 sequence (whole entry)

[3] = target: T3, 3-oxo-5-alpha-steroid 4-dehydrogenase 1 (Rattus norvegicus, UniProt P24008); assay: Inhibition against rat Steroid 5-alpha-reductase type I at 10 uM concentration using 18213 3H testosterone 210 nM as substrate: No inhibition
T3 sequence (P24008 whole entry): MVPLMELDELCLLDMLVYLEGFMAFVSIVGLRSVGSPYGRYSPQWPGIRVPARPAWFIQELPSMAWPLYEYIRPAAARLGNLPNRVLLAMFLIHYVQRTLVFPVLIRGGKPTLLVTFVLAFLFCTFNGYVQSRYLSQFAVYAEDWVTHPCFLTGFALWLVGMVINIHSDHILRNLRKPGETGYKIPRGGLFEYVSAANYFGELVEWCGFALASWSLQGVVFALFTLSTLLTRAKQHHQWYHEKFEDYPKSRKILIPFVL

[4] = target: T4, 3-oxo-5-alpha-steroid 4-dehydrogenase 2 (Homo sapiens) (UniProt P31213); assay: Percentage inhibition against human Steroid 5-alpha-reductase type 2 at 10 uM concentration using 18213 3H testosterone 210 nM as substrate
T4 sequence (whole entry): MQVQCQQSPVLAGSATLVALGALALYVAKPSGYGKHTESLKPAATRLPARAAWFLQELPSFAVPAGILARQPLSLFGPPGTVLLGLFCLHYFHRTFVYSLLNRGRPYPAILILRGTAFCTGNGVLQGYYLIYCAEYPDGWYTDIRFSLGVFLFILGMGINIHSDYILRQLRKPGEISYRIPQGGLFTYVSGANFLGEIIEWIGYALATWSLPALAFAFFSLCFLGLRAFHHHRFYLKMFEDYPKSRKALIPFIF

[5] = target: T4, 3-oxo-5-alpha-steroid 4-dehydrogenase 2 (Homo sapiens); assay: Inhibition against human 5-alpha-reductase type 2 at 10 uM concentration using 18213 3H testosterone 210 nM as substrate
[6] = target: T1, 3-oxo-5-alpha-steroid 4-dehydrogenase 1 (Homo sapiens); assay: (§1) Inhibition against human Steroid 5-alpha-reductase type I in DU 145 cell culture at 10 uM concentration using 3H androstenedione 5 nM as substrate
[7] = target: T5, 3-oxo-5-alpha-steroid 4-dehydrogenase 2 (Homo sapiens, UniProt P31213); assay: Inhibitory activity against human 5-alpha-reductase type 2 using 18213 3H testosterone 210 nM as substrate
T5 sequence (P31213 whole entry): T4 sequence (whole entry)

[8] = target: T6, 3-oxo-5-alpha-steroid 4-dehydrogenase 1 (Rattus norvegicus) (UniProt P24008); assay: Inhibition against rat Steroid 5-alpha-reductase type I at 10 uM concentration using 18213 3H testosterone 210 nM as substrate
T6 sequence (whole entry): T3 sequence (P24008 whole entry)

[9] = target: T6, 3-oxo-5-alpha-steroid 4-dehydrogenase 1 (Rattus norvegicus); assay: Inhibition against rat Steroid 5-alpha-reductase type I at 10 uM concentration using 18213 3H testosterone 210 nM as substrate; No inhibition
[10] = target: T1, 3-oxo-5-alpha-steroid 4-dehydrogenase 1 (Homo sapiens); assay: as §1; type: cell-based
[11] = target: T4, 3-oxo-5-alpha-steroid 4-dehydrogenase 2 (Homo sapiens); assay: Inhibition against human Steroid 5-alpha-reductase type 2 at 10 uM concentration using 18213 3H testosterone 210 nM as substrate
[12] = target: T5, 3-oxo-5-alpha-steroid 4-dehydrogenase 2; assay: Inhibitory activity against human Steroid 5-alpha-reductase type 2 using 18213 3H testosterone 210 nM as substrate
[13] = target: T3, 3-oxo-5-alpha-steroid 4-dehydrogenase 1; assay: Inhibitory activity against rat Steroid 5-alpha-reductase type I using 18213 3H testosterone 210 nM as substrate

Structure (SMILES) | IC50 [2] [nM] | inhibition [8] [%] | inhibition [10] [%] | inhibition [11] [%] | also measured
O=C(O)c1ccc(-c2ccc3c(ccn3CC3CCCCC3)c2)cc1 | 2100 | – | – | – | inhibition [1]: 81%; IC50 [3]: Not Active; inhibition [4]: 50%
O=C(O)c1ccc(-c2ccc3c(ccn3C3CCCCC3)c2)cc1 | – | – | – | – | inhibition [9]: inactive; inhibition [4]: 36%
CCCCn1ccc2cc(-c3ccc(C(=O)O)cc3)ccc21 | – | 17 | 72 | 24 | –
CC(C)(C)NC(=O)[C@H]1CC[C@H]2[C@@H]3CC=C4C=C(C(=O)O)CC[C@]4(C)[C@H]3CC[C@]12C [EPRISTERIDE] | 1100 | – | – | – | IC50 [12]: 3 nM; IC50 [13]: 45 nM

Continued, in another order:

IC50 [2] [nM] | inhibition [8] [%] | inhibition [10] [%] | inhibition [11] [%] | Structure (SMILES) | also measured
– | 12 | – | – | O=C(O)c1ccc(-c2ccc3c(ccn3Cc3ccccc3)c2)cc1 | inhibition [5]: 60%; inhibition [6]: 67%; IC50 [7]: 6200 nM
2780 | 26 | 81 | 40 | O=C(O)c1ccc(-c2ccc3c(ccn3C(c3ccccc3)c3ccccc3)c2)cc1 | –
3200 | 43 | 75 | 10 | CCCC(CCC)n1ccc2cc(-c3ccc(C(=O)O)cc3)ccc21 | –
